Data: ChEMBL document CHEMBL5678818, “Discovery of potent SOS1 inhibitors that block RAS activation via disruption of the RAS-SOS1 interaction” (Proc Natl Acad Sci U S A, 2019)

Key:
[1] = tested on: Receptor-type tyrosine-protein kinase FLT3 (Homo sapiens), P36888 [UNDEFINED MUTATION]; assay: Inhibition of FLT3 ITD/D835V mutant (unknown origin) assessed as residual activity at 1000 nM by KINOMEscan analysis relative to control
[2] = tested on: Tyrosine-protein kinase ABL1 (Homo sapiens), P00519 [F317I]; assay: Inhibition of nonphosphorylated ABL1 F317I mutant (unknown origin) assessed as residual activity at 100 nM by KINOMEscan analysis relative to control
[3] = biological target: Mitogen-activated protein kinase kinase kinase kinase 5 (Homo sapiens) (UniProt Q9Y4K4); assay: Inhibition of MAP4K5 (unknown origin) assessed as residual activity at 100 nM by KINOMEscan analysis relative to control
[4] = biological target: Tyrosine-protein kinase Tec (Homo sapiens) (UniProt P42680); assay: Inhibition of TEC (unknown origin) assessed as residual activity at 100 nM by KINOMEscan analysis relative to control
[5] = biological target: TGF-beta receptor type-2 (Homo sapiens) (UniProt P37173); assay: Inhibition of TGFBR2 (unknown origin) assessed as residual activity at 100 nM by KINOMEscan analysis relative to control
[6] = species on record: Homo sapiens; assay: Inhibition of N-terminal GST-tagged recombinant human SOS1 N879V mutant (564 to 1049 residues) expressed in Escherichia coli assessed as reduction in KRAS G12C mutant activation at 10 uM by HTRF analysis relative to control
[7] = biological target: Tyrosine-protein kinase Lyn (Homo sapiens) (UniProt P07948); assay: Inhibition of LYN (unknown origin) assessed as residual activity at 100 nM by KINOMEscan analysis relative to control
[8] = biological target: T1, Serine/threonine-protein kinase TAO3 (Homo sapiens) (UniProt Q9H2K8); assay: Inhibition of TAOK3 (unknown origin) assessed as residual activity at 100 nM by KINOMEscan analysis relative to control
T1 sequence (whole entry): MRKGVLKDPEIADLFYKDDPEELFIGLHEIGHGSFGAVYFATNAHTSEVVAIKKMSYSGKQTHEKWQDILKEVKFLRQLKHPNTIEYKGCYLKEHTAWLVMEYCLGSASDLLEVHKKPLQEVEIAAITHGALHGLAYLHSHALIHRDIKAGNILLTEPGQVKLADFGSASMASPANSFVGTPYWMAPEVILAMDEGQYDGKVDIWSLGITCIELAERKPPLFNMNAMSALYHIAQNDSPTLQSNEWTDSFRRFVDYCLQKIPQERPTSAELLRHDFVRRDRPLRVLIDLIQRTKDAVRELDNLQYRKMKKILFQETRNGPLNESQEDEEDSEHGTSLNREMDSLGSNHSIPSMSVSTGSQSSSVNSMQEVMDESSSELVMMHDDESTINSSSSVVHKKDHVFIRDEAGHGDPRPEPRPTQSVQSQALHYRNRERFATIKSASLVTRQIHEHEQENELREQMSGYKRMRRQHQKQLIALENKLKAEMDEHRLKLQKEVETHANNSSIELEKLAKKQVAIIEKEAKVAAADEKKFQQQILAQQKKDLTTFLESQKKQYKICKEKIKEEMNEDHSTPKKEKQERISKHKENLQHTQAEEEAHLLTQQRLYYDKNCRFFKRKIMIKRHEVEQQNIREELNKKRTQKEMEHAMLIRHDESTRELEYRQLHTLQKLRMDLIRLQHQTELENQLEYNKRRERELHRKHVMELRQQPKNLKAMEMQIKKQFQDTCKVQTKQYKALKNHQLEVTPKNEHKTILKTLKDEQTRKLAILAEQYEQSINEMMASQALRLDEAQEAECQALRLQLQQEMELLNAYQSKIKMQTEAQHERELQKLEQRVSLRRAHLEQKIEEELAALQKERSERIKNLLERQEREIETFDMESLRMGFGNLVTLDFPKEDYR

[9] = biological target: GTPase KRas/RAF1 (Homo sapiens, UniProt P01116+P04049); assay: Inhibition of N-terminal His10-tagged wild-type recombinant human KRAS (1 to 169 residues) expressed in Escherichia coli/N-terminal GST-tagged recombinant human CRAF RBD (51 to 131 residues) expressed in Escherichia coli protein-protein interaction preincubated for 30 mins with KRAS followed by CRAF RBD addition measured after 60 mins in presence of anti-6His-XL665/GTP by HTRF analysis

| SMILES | Activity [1] [%] | Activity [2] [%] | Activity [3] [%] | Activity [4] [%] | Activity [5] [%] | inhibition [6] [%] | Activity [7] [%] | Activity [8] [%] | IC50 [9] [µM] |
| --- | --- | --- | --- | --- | --- | --- | --- | --- | --- |
| COc1cc2nc(C)nc(N[C@H](C)c3cccc(-c4cn[nH]c4)c3)c2cc1OC | 100 | – | – | – | – | – | – | – | – |
| COc1cc2ncnc(N[C@H](C)c3cccc4ccccc34)c2cc1OC | – | 85 | 87 | 87 | 93 | 51 | 84 | 82 | > 20 |
